# ChEMBL document CHEMBL2074110, “Characterization, cDNA cloning, and functional expression of mouse ileal sodium-dependent bile acid transporter” (J Biochem, 1999)
# Columns and labels:
# Format in all cases: functional, cell-based
# Conditions in all cases: ileocyte
# [1] = target: T1, Ileal sodium/bile acid cotransporter (Mus musculus, UniProt P70172); experiment: TP_TRANSPORTER: inhibition of Taurocholate uptake (Taurocholate: 0.72 uM, GC: a 100-fold excess) in isolated mouse ileocytes
# T1 sequence (P70172 whole entry): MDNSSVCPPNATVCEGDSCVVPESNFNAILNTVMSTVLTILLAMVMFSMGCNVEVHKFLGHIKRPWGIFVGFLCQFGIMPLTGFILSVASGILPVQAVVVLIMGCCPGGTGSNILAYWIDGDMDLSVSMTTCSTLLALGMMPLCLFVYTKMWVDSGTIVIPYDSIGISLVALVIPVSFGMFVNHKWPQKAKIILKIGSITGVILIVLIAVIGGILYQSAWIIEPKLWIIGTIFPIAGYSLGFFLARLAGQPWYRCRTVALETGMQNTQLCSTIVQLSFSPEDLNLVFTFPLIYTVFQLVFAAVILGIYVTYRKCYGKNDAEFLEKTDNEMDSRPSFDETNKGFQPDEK
# [2] = target: T1, Ileal sodium/bile acid cotransporter; experiment: TP_TRANSPORTER: inhibition of Taurocholate uptake (Taurocholate: 0.72 uM, Lithocholate: a 100-fold excess) in isolated mouse ileocytes
# [3] = target: T1, Ileal sodium/bile acid cotransporter; experiment: TP_TRANSPORTER: inhibition of Taurocholate uptake (Taurocholate: 0.72 uM, Deoxycholate: a 100-fold excess) in isolated mouse ileocytes
# [4] = target: T1, Ileal sodium/bile acid cotransporter; experiment: TP_TRANSPORTER: inhibition of Taurocholate uptake (Taurocholate: 0.72 uM, CDCA: a 100-fold excess) in isolated mouse ileocytes
structure (smiles),measurement,setting,value
C[C@H](CCC(=O)NCC(=O)O)[C@H]1CC[C@H]2[C@@H]3[C@H](O)C[C@@H]4C[C@H](O)CC[C@]4(C)[C@H]3C[C@H](O)[C@]12C [GLYCOCHOLIC ACID],Activity,[1],inhibitor [+]
C[C@H](CCC(=O)O)[C@H]1CC[C@H]2[C@@H]3CC[C@@H]4C[C@H](O)CC[C@]4(C)[C@H]3CC[C@]12C [LITHOCHOLIC ACID],Activity,[2],inhibitor [+]
C[C@H](CCC(=O)O)[C@H]1CC[C@H]2[C@@H]3CC[C@@H]4C[C@H](O)CC[C@]4(C)[C@H]3C[C@H](O)[C@]12C [DEOXYCHOLIC ACID],Activity,[3],inhibitor [+]
C[C@H](CCC(=O)O)[C@H]1CC[C@H]2[C@@H]3[C@H](O)C[C@@H]4C[C@H](O)CC[C@]4(C)[C@H]3CC[C@]12C [CHENODIOL],Activity,[4],inhibitor [+]
